Experimental findings from PubChem BioAssay AID1918940 (Molecular Pharmacology Branch, DTP, NCI, 2023) are described below.

For the assay, the system named is NCI-H211 complex spheroid viability. Kind of assay: Anticancer human tumor NCI-H211 cell line growth inhibition [LSD1].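 For all read-outs here: luminescent viability read after seven days of drug exposure.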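 For viability, T/C: 100% = DMSO vehicle control viability.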 The note with it: for viability, T/C: stronger effect = lower value. A digest of the protocol: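 Drug combinations with the LSD1 inhibitor iadademstat tested on tumor cells co-cultured as spheroids with endothelial cells and mesenchymal stem cells. Concentrations descended in half-log increments from clinical Cmax or 10 microM.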

The mark [1] stands for this setting: curve of first compound, second compound 0.1 µM.
The mark [2] stands for this setting: curve of first compound, second compound 0.316 µM.
Where [3] appears, read: curve of first compound, second compound 1 µM.
The mark [4] stands for this setting: curve of first compound, second compound 3.16 µM.
Where [5] appears, read: curve of first compound, second compound 10 µM.

The viability, T/C is the ratio of treated to control. For orientation: IC50 means the point on the concentration scale where inhibition reaches its midpoint.

Several values for one entry are separate records, joined by “and”; a condition that tells them apart may be missing. Equal values may be shown once. Where only a bound is given, the exact number is not on record here.

For the compound `COc1ccc([C@@H](O)c2cc(-c3ncnc4cc(N5CCOCC5)ccc34)c(F)cc2Cl)nn1`, the viability, T/C runs as follows: (compound 0.0316 µM) 108% and 89.2%; (compound 0.1 µM) 96.5% and 86.3%; (compound 0.316 µM) 93.7% and 94.2%; (compound 1 µM) 103% and 87.4%; (compound 3.16 µM) 70.8% and 76.6%; (compound 10 µM) 10.4% and 8.12%. For the same compound, the IC50 (curve of compound) was 4700 nM and 4950 nM.
As for `O=C(c1cc(Cc2n[nH]c(=O)c3ccccc23)ccc1F)N1CCN(C(=O)C2CC2)CC1`, the viability, T/C is, setting by setting: (compound 0.0316 µM) 59.8% and 54.5%; (compound 0.1 µM) 30.3% and 22.6%; (compound 0.316 µM) 6.95% and 9.45%; (compound 1 µM) 3.01% and 7.35%; (compound 3.16 µM) 2.95% and 7.77%; (compound 10 µM) 2.77% and 6.06%. Besides, the IC50 (curve of compound) was 46.4 nM and 36.9 nM.
On to `Cn1ncnc1C1c2n[nH]c(=O)c3cc(F)cc(c23)NC1c1ccc(F)cc1` (stereo not drawn) + NC1CCC(NC2CC2c2ccccc2)CC1, for which the 50% inhibitory concentration (IC50) was 1.91 nM under setting [1]; 1.68 nM under setting [2]; 1.56 nM under setting [3]; 1.24 nM under setting [4]; under 0.316 nM under setting [5]. Also, the viability, T/C (second compound 0.1 µM, first compound 0.000316 µM) was 69.9%; the viability, T/C (second compound 0.1 µM, first compound 0.001 µM) is 61.4%; the viability, T/C (second compound 0.1 µM, first compound 0.00316 µM) is 39.8%; the viability, T/C (second compound 0.1 µM, first compound 0.01 µM) is 4.59%; the viability, T/C (second compound 0.1 µM, first compound 0.0316 µM) is 1.93%; the viability, T/C (second compound 0.1 µM, first compound 0.1 µM) is 2.12%. Also, the viability, T/C is 67% (second compound 0.316 µM, first compound 0.000316 µM); 66.3% (second compound 0.316 µM, first compound 0.001 µM); 30.7% (second compound 0.316 µM, first compound 0.00316 µM); 4.65% (second compound 0.316 µM, first compound 0.01 µM); 2.59% (second compound 0.316 µM, first compound 0.0316 µM); 2.43% (second compound 0.316 µM, first compound 0.1 µM). Also, the viability, T/C by setting is: (second compound 1 µM, first compound 0.000316 µM) 59%; (second compound 1 µM, first compound 0.001 µM) 59.9%; (second compound 1 µM, first compound 0.00316 µM) 35.7%; (second compound 1 µM, first compound 0.01 µM) 4.84%; (second compound 1 µM, first compound 0.0316 µM) 2.31%; (second compound 1 µM, first compound 0.1 µM) 2.49%. Besides, the viability, T/C is, setting by setting: (second compound 3.16 µM, first compound 0.000316 µM) 54.7%; (second compound 3.16 µM, first compound 0.001 µM) 53.5%; (second compound 3.16 µM, first compound 0.00316 µM) 33.7%; (second compound 3.16 µM, first compound 0.01 µM) 3.84%; (second compound 3.16 µM, first compound 0.0316 µM) 2.11%; (second compound 3.16 µM, first compound 0.1 µM) 2.23%. Further, the viability, T/C reads like this: (second compound 10 µM, first compound 0.000316 µM) 33.6%; (second compound 10 µM, first compound 0.001 µM) 31.5%; (second compound 10 µM, first compound 0.00316 µM) 16%; (second compound 10 µM, first compound 0.01 µM) 1.98%; (second compound 10 µM, first compound 0.0316 µM) 0.92%; (second compound 10 µM, first compound 0.1 µM) 1.15%.
As for `O=C(C=Cc1cccc(S(=O)(=O)Nc2ccccc2)c1)NO` + NC1CCC(NC2CC2c2ccccc2)CC1, the concentration for half-maximal inhibition (IC50) runs as follows: under setting [1], under 9.49 nM; under setting [2], under 9.49 nM; under setting [3], under 9.49 nM; under setting [4], under 9.49 nM; under setting [5], under 9.49 nM. The viability, T/C is 15.1% (second compound 0.1 µM, first compound 0.00949 µM); 3.51% (second compound 0.1 µM, first compound 0.03 µM); 2.43% (second compound 0.1 µM, first compound 0.0949 µM); 1.81% (second compound 0.1 µM, first compound 0.3 µM); 0.5% (second compound 0.1 µM, first compound 0.949 µM); 0.09% (second compound 0.1 µM, first compound 3 µM). In addition, the viability, T/C (second compound 0.316 µM, first compound 0.00949 µM) was 18.4%; the viability, T/C (second compound 0.316 µM, first compound 0.03 µM) was 3.02%; the viability, T/C (second compound 0.316 µM, first compound 0.0949 µM) was 8.25%; the viability, T/C (second compound 0.316 µM, first compound 0.3 µM) is 1.92%; the viability, T/C (second compound 0.316 µM, first compound 0.949 µM) was 1.26%; the viability, T/C (second compound 0.316 µM, first compound 3 µM) was 0.1%. The viability, T/C reads like this: (second compound 1 µM, first compound 0.00949 µM) 17.3%; (second compound 1 µM, first compound 0.03 µM) 3.31%; (second compound 1 µM, first compound 0.0949 µM) 4.77%; (second compound 1 µM, first compound 0.3 µM) 1.92%; (second compound 1 µM, first compound 0.949 µM) 3.19%; (second compound 1 µM, first compound 3 µM) 5.1%. In addition, the viability, T/C was 11.6% (second compound 3.16 µM, first compound 0.00949 µM); 2.91% (second compound 3.16 µM, first compound 0.03 µM); 4.81% (second compound 3.16 µM, first compound 0.0949 µM); 2.66% (second compound 3.16 µM, first compound 0.3 µM); 0.27% (second compound 3.16 µM, first compound 0.949 µM); 0.1% (second compound 3.16 µM, first compound 3 µM). Moreover, the viability, T/C is 9.56% (second compound 10 µM, first compound 0.00949 µM); 2.44% (second compound 10 µM, first compound 0.03 µM); 2.03% (second compound 10 µM, first compound 0.0949 µM); 1.32% (second compound 10 µM, first compound 0.3 µM); 0.15% (second compound 10 µM, first compound 0.949 µM); 0.17% (second compound 10 µM, first compound 3 µM).
As to `CCN(c1cc(-c2ccc(CN3CCOCC3)cc2)cc(C(=O)NCc2c(C)cc(C)[nH]c2=O)c1C)C1CCOCC1`, the viability, T/C was 122% and 86.1% (compound 0.00949 µM); 108% and 75.3% (compound 0.03 µM); 100% and 68.3% (compound 0.0949 µM); 97.3% and 54.6% (compound 0.3 µM); 96.4% and 52.2% (compound 0.949 µM); 93.8% and 47.7% (compound 3 µM). Where the note is “curve of compound”, the concentration for half-maximal inhibition (IC50) was > 3000 nM and 1390 nM.
Turning to `CCc1c2c(nc3ccc(O)cc13)-c1cc3c(c(=O)n1C2)COC(=O)[C@]3(O)CC`, the viability, T/C (compound 0.000949 µM) was 1.09% and 3.31%; the viability, T/C (compound 0.003 µM) was 0.88% and 2.36%; the viability, T/C (compound 0.00949 µM) was 0.42% and 1.27%; the viability, T/C (compound 0.03 µM) was 0.59% and 0.51%; the viability, T/C (compound 0.0949 µM) is 0.14% and 0.18%; the viability, T/C (compound 0.3 µM) was 0.21% and 0.25%. In addition, the IC50 (curve of compound) is under 0.949 nM.
